# pIC50: −log10 of the molar value.
# Biological target: T1, human capsaicin receptor (Homo sapiens, UniProt Q8NER1)
# T1 construct: expressed in transfected cells; host or cells: HEK293, stably transfected with pBK-CMV construct
# Assay: Calcium mobilization assay, determination of antagonist activity
# Type: cell-based
# Settings: capsaicin at EC50; cells expressing human capsaicin receptor; Example 6
# Method in brief: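 IC50 is the antagonist level giving a 50% drop in the capsaicin (EC50) calcium signal, read by FLIPR in Fluo-3 AM-loaded stable HEK293 lines bearing full-length human receptor. Compounds at 1-5 µM final were preincubated 0.5-6 h, room temperature, dark, in KRH pH 7.4.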
# T1 sequence (Q8NER1 whole entry): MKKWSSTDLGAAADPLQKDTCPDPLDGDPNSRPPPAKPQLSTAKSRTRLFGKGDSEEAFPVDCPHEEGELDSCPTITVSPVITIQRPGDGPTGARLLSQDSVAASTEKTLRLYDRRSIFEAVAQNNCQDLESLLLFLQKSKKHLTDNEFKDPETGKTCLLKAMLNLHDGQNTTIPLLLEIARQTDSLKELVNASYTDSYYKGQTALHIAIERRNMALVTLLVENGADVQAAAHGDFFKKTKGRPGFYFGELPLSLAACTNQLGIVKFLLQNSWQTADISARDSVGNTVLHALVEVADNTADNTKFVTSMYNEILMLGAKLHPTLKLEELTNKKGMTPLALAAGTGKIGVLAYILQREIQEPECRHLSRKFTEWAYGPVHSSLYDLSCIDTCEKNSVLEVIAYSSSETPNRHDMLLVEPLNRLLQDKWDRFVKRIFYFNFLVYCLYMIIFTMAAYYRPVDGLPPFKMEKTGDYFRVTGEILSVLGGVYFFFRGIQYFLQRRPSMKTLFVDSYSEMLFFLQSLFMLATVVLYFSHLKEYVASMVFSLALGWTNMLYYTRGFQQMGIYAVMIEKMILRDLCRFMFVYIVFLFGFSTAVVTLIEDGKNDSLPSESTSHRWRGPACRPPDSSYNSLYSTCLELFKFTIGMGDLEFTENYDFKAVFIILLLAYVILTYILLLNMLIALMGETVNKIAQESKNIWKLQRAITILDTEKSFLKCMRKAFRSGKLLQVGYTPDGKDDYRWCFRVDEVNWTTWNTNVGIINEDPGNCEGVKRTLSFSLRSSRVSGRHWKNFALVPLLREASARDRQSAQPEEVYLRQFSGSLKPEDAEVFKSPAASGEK
row,Compound,pIC50
1,"C[C@@H]1CN(c2ncc(C(=O)O)cc2Cl)CCN1c1cc(-c2ccc(F)cc2)nc(N2CCC[C@H]2CO)n1 [Example 156, 5-Chloro-6-{4-[6-(4-fluoro-phenyl)-2-(2-(S)-hydroxymethyl-pyrrolidin-1-yl)-pyrimidin-4-yl]-3-(R)-methyl-piperazin-1-yl}-nicotinic acid]",≥ 6.00
2,"CC(C)N(C)c1nc(-c2ccc(F)cc2)cc(N2CCN(c3ncc(C(=O)O)cc3Cl)C[C@H]2C)n1 [Example 157, 5-Chloro-6-{4-[6-(4-fluoro-phenyl)-2-(isopropyl-methyl-amino)-pyrimidin-4-yl]-3-(R)-methyl-piperazin-1-yl}-nicotinic acid]",≥ 6.00
3,"O=C(O)c1cnc(N2CCN(c3cc(-c4ccc(F)cc4)nc(N4CCC[C@H]4CO)n3)CC2)c(Cl)c1 [Example 158, 5-Chloro-6-{4-[6-(4-fluoro-phenyl)-2-(2-(S)-hydroxymethyl-pyrrolidin-1-yl)-pyrimidin-4-yl]-piperazin-1-yl}-nicotinic acid]",≥ 6.00
4,"C[C@@H]1COCCN1c1nc(-c2ccc(F)cc2)cc(N2CCN(c3ncc(C(=O)O)cc3Cl)CC2)n1 [Example 159, 5-Chloro-6-{4-[6-(4-fluoro-phenyl)-2-(3-(R)-methyl-morpholin-4-yl)-pyrimidin-4-yl]-piperazin-1-yl}-nicotinic acid]",≥ 6.00
5,"CC(C)N(C)c1nc(-c2ccc(F)cc2)cc(N2CCN(c3ncc(C(=O)O)cc3Cl)CC2)n1 [Example 160, 5-Chloro-6-{4-[6-(4-fluoro-phenyl)-2-(isopropyl-methyl-amino)-pyrimidin-4-yl]-piperazin-1-yl}-nicotinic acid]",≥ 6.00
6,"Cc1cc(C(=O)O)cnc1N1CCN(c2cc(-c3ccc(F)c(Cl)c3)nc(N(C)C(C)C)n2)CC1 [Example 161, 6-{4-[6-(3-Chloro-4-fluoro-phenyl)-2-(isopropyl-methyl-amino)-pyrimidin-4-yl] - piperazin-1-yl}-5-methyl-nicotinic acid]",≥ 6.00
7,"Cc1cc(-c2ncco2)cnc1N1CCN(c2cc(-c3ccc(F)cc3)nc(N3CCC[C@H]3C)n2)[C@H](C)C1 [Example 162, 4-(4-Fluoro-phenyl)-6-[2-(R)-methyl-4-(3-methyl-5-oxazol-2-yl-pyridin-2-yl)-piperazin-1-yl]-2-(2-(R)-methyl-pyrrolidin-1-yl)-pyrimidine]",≥ 6.00
8,"C[C@@H]1CN(c2ncc(C(=O)O)cc2Cl)CCN1c1cc(-c2ccccc2)nc(N2CCC[C@H]2CO)n1 [Example 163, 5-Chloro-6-{4-[2-(2-(S)-hydroxymethyl-pyrrolidin-1-yl)-6-phenyl-pyrimidin-4-yl]-3-(R)-methyl-piperazin-1-yl}-nicotinic acid]",≥ 6.00
9,"Cc1cc(-c2nnn[nH]2)cnc1N1CCN(c2cc(-c3ccc(F)cc3)nc(N3CCC[C@H]3C)n2)[C@H](C)C1 [Example 164, 4-(4-Fluoro-phenyl)-6-{2-(R)-methyl-4-[3-methyl-5-(1H-tetrazol-5-yl)-pyridin-2-yl]-piperazin-1-yl}-2-(2-(R)-methyl-pyrrolidin-1-yl)-pyrimidine]",≥ 6.00
10,"C[C@@H]1CN(c2ncc(C(N)=O)cc2Cl)CCN1c1cc(-c2ccccc2)nc(N2CCC[C@H]2CO)n1 [Example 165, 5-Chloro-6-{4-[2-(2-(S)-hydroxymethyl-pyrrolidin-1-yl)-6-phenyl-pyrimidin-4-yl]-3-(R)-methyl-piperazin-1-yl}-nicotinamide]",≥ 6.00
11,"C[C@@H]1CN(c2ncc(C(=O)NCCO)cc2Cl)CCN1c1cc(-c2ccccc2)nc(N2CCC[C@H]2CO)n1 [Example 166, 5-Chloro-N-(2-hydroxy-ethyl)-6-{4-[2-(2-(S)-hydroxymethyl-pyrrolidin-1-yl)-6-phenyl-pyrimidin-4-yl]-3-(R)-methyl-piperazin-1-yl}-nicotinamide]",≥ 6.00
12,"C[C@@H]1CN(c2ncc(C(=O)NCCO)cc2Cl)CCN1c1cc(-c2ccccc2)nc(N2CCC[C@H]2C)n1 [Example 167, 5-Chloro-N-(2-hydroxy-ethyl)-6-{3-(R)-methyl-4-[2-(2-(R)-methyl-pyrrolidin-1-yl)-6-phenyl-pyrimidin-4-yl]-piperazin-1-yl}-nicotinamide]",≥ 6.00
13,"Cc1ccc(-c2cc(N3CCN(c4ncc(C(=O)O)cc4C)C[C@H]3C)nc(N3CCCC3C)n2)cc1 (stereo partly drawn) [Example 168, 5-Methyl-6-{3-(R)-methyl-4-[2-(2-methyl-pyrrolidin-1-yl)-6-p-tolyl-pyrimidin-4-yl]-piperazin-1-yl}-nicotinic acid]",≥ 6.00
14,"Cc1cc(-c2ncc[nH]2)cnc1N1CCN(c2cc(-c3ccc(F)cc3)nc(N3CCC[C@H]3C)n2)[C@H](C)C1 [Example 169, 4-(4-Fluoro-phenyl)-6-{4-[5-(1H-imidazol-2-yl)-3-methyl-pyridin-2-yl]-2-(R)-methyl-piperazin-1-yl}-2-(2-(R)-methyl-pyrrolidin-1-yl)-pyrimidine]",≥ 6.00
15,"Cc1cc(C(=O)O)cnc1N1CCN(c2cc(-c3ccc(F)cc3)nc(N3CCC[C@H]3C)n2)[C@@H](C)C1 [Example 170, 6-{4-[6-(4-Fluoro-phenyl)-2-(2-(R)-methyl-pyrrolidin-1-yl)-pyrimidin-4-yl]-3-(S)-methyl-piperazin-1-yl}-5-methyl-nicotinic acid]",≥ 6.00
16,"Cc1ccc(-c2cc(N3CCN(c4ncc(C(=O)NCCO)cc4C)C[C@H]3C)nc(N3CCCC3C)n2)cn1 (stereo partly drawn) [Example 171, N-(2-Hydroxy-ethyl)-5-methyl-6-{3-(R)-methyl-4-[6-(6-methyl-pyridin-3-yl)-2-(2-methyl-pyrrolidin-1-yl)-pyrimidin-4-yl]-piperazin-1-yl}-nicotinamide]",≥ 6.00
17,"Cc1cc(C(=O)O)cnc1N1CCN(c2cc(-c3ccc(F)cc3)nc(N3CCC[C@H]3C)c2)[C@H](C)C1 [Example 172, 6-{4-[2-(4-Fluoro-phenyl)-6-(2-(R)-methyl-pyrrolidin-1-yl)-pyridin-4-yl]-3-(R)-methyl-piperazin-1-yl}-5-methyl-nicotinic acid]",≥ 6.00
18,"C[C@@H]1CN(c2ncc(CO)cc2Cl)CCN1c1cc(-c2ccc(F)c(Cl)c2)nc(N2CCCCC2)n1 [Example 173, (5-Chloro-6-{4-[6-(3-chloro-4-fluoro-phenyl)-2-piperidin-1-yl-pyrimidin-4-yl]-3-(R)-methyl-piperazin-1-yl}-pyridin-3-yl)-methanol]",≥ 6.00
19,"CCOC(=O)c1cnc(N2CCN(c3cc(-c4ccc(F)c(Cl)c4)nc(N4CCC[C@H]4C)n3)C[C@H]2C)c(Cl)c1 [Example 174, 5-Chloro-6-{4-[6-(3-chloro-4-fluoro-phenyl)-2-(2-(R)-methyl-pyrrolidin-1-yl)-pyrimidin-4-yl]-2-(R)-methyl-piperazin-1-yl}-nicotinic acid ethyl ester]",≥ 6.00
20,"Cc1cc(C(=O)O)cnc1N1CCN(c2cc(-c3cccc(Cl)c3)nc(N3CCC[C@H]3C)c2)[C@H](C)C1 [Example 175, 6-{4-[2-(3-Chloro-phenyl)-6-(2-(R)-methyl-pyrrolidin-1-yl)-pyridin-4-yl]-3-(R)-methyl-piperazin-1-yl}-5-methyl-nicotinic acid]",≥ 6.00
21,"Cc1cc(-c2cc(N3CCN(c4ncc(C(=O)O)cc4C)C[C@H]3C)cc(N3CCC[C@H]3C)n2)ccc1F [Example 176, 6-{4-[2-(4-Fluoro-3-methyl-phenyl)-6-(2-(R)-methyl-pyrrolidin-1-yl)-pyridin-4-yl]-3-(R)-methyl-piperazin-1-yl}-5-methyl-nicotinic acid]",≥ 6.00
22,"C[C@@H]1CCCN1c1nc(-c2ccc(F)cc2)cc(N2CCN(c3ncc(C(=O)O)cc3C(F)(F)F)CC2)n1 [Example 177, 6-{4-[6-(4-Fluoro-phenyl)-2-(2-(R)-methyl-pyrrolidin-1-yl)-pyrimidin-4-yl]-piperazin-1-yl}-5-trifluoromethyl-nicotinic acid]",≥ 6.00
23,"Cc1cc(C(=O)O)cnc1N1CCN(c2cc(-c3ccc(F)c(Cl)c3)nc(N3CCC[C@H]3C)c2)[C@H](C)C1 [Example 178, 6-{4-[2-(3-Chloro-4-fluoro-phenyl)-6-(2-(R)-methyl-pyrrolidin-1-yl)-pyridin-4-yl]-3-(R)-methyl-piperazin-1-yl}-5-methyl-nicotinic acid]",≥ 6.00
24,"C[C@@H]1CN(c2ncc(C(=O)O)cc2C(F)(F)F)CCN1c1cc(-c2ccc(F)cc2)nc(N2CCC[C@H]2C)n1 [Example 179, 6-{4-[6-(4-Fluoro-phenyl)-2-(2-(R)-methyl-pyrrolidin-1-yl)-pyrimidin-4-yl]-3-(R)-methyl-piperazin-1-yl}-5-trifluoromethyl-nicotinic acid]",≥ 6.00
25,"Cc1cc(C(=O)O)cnc1N1CCN(c2cc(-c3cncc(Cl)c3)nc(N3CCC[C@H]3C)c2)[C@H](C)C1 [Example 180, 6-{4-[5′-Chloro-6-(2-(R)-methyl-pyrrolidin-1-yl)-[2,3′]bipyridinyl-4-yl]-3-(R)-methyl-piperazin-1-yl}-5-methyl-nicotinic acid]",≥ 6.00
26,"Cc1cc(CCO)cnc1N1CCN(c2cc(-c3ccc(F)cc3)nc(N3CCC[C@H]3C)n2)[C@H](C)C1 [Example 181, 2-[6-((3R)-4-{6-(4-fluorophenyl)-2-[(2R)-2-methyl-1-pyrrolidinyl]-4-pyrimidinyl}-3-methyl-1-piperazinyl)-5-methyl-3-pyridinyl]ethanol]",≥ 6.00
27,"Cc1cc(OCCO)cnc1N1CCN(c2cc(-c3ccc(F)c(Cl)c3)nc(N3CCC[C@H]3C)n2)[C@H](C)C1 [Example 182, 2-{[6-((3R)-4-{6-(3-chloro-4-fluorophenyl)-2-[(2R)-2-methyl-1-pyrrolidinyl]-4-pyrimidinyl}-3-methyl-1-piperazinyl)-5-methyl-3-pyridinyl]oxy}ethanol]",≥ 6.00
28,"C[C@@H]1CN(c2ncc(OCCO)cc2Cl)CCN1c1cc(-c2ccc(F)c(Cl)c2)nc(N2CCC[C@H]2C)n1 [Example 183, 2-{[5-chloro-6-((3R)-4-{6-(3-chloro-4-fluorophenyl)-2-[(2R)-2-methylpyrrolidin-1-yl]pyrimidin-4-yl}-3-methylpiperazin-1-yl)pyridin-3-yl]oxy}ethanol]",≥ 6.00

# — patent US8334382B2, “Substituted biaryl piperazinyl-pyridine analogues” (Neurogen Corporation, priority 2004, dated 2012)
